Test results from US12384777B2 (Tay Therapeutics Limited, priority 2019, dated 2025).
Read-outs that look alike come from different tables or passages of the source.

Key:
BRD4 BD1 = BRD4 BD1 (Homo sapiens (Human), UniProt O60885); assay: Bromodomain binding assay (T7 phage display, qPCR), BRD4 BD1; settings: read-out: BRD4 BD1 Kd
Method: (§1) T7 phage strains displaying bromodomains were grown in parallel in 24-well blocks in an E. coli host derived from the BL21 strain. E. coli were grown to log-phase and infected with T7 phage from a frozen stock (multiplicity of infection=0.4) and incubated with shaking at 32° C. until lysis (90-150 min). The lysates were centrifuged (5,000×g) and filtered (0.2 μm) to remove cell debris. Streptavidin-coated magnetic beads were treated with biotinylated small molecule or acetylated peptide ligands for 30 min at RT to generate affinity resins for bromodomain assays. The ligated beads were blocked with excess biotin and washed with blocking buffer (SeaBlock (Pierce), 1% BSA, 0.05% Tween 20, 1 mM DTT) to remove unbound ligand and to reduce non-specific phage binding. Binding reactions were assembled by combining bromodomains, ligated affinity beads, and test compounds in 1× binding buffer (16% SeaBlock, 0.32×PBS, 0.02% BSA, 0.04% Tween 20, 0.004% Sodium azide, 7.9 mM DTT). Test compounds were prepared as 1000× stocks in 100% DMSO and subsequently diluted 1:25 in MEG. The compounds were then diluted directly into the assays such that the final concentrations of DMSO and MEG were 0.1% and 2.4%, respectively. All reactions were performed in polypropylene 384-well plates in a final volume of 0.02 ml. The assay plates were incubated at RT with shaking for 1 hr and the affinity beads were washed with wash buffer (1×PBS, 0.05% Tween 20). The beads were then re-suspended in elution buffer (1×PBS, 0.05% Tween 20, 2 μM non-biotinylated affinity ligand) and incubated at RT with shaking for 30 min. The bromodomain concentration in the eluates was measured by quantitative polymerase chain reaction (qPCR).
(§2) An 11-point 3-fold serial dilution of each test compound was prepared in 100% DMSO at 1000× final test concentration. All compounds were distributed by acoustic transfer (non-contact dispensing) in 100% DMSO. The compounds were then diluted directly into the assays such that the final concentration of DMSO was 0.09%. Most dissociation constants were determined using a compound top concentration=10,000 nM. If the initial dissociation constant determined was <0.169 nM (the lowest concentration tested), the measurement was repeated with a serial dilution starting at a lower top concentration.
(§3) The same bromodomain assay procedure as that outlined above was used. Example compounds were screened at 30 times their Kd, and results for primary screen binding interactions are reported as ‘% Ctrl’, where lower numbers indicate stronger hits in the matrix.

BRD4 BD2 = BRD4 BD2 (Homo sapiens (Human), UniProt O60885); assay: Bromodomain binding assay (T7 phage display, qPCR), BRD4 BD2; settings: read-out: BRD4 BD2 Kd
Method: as §1, §2, §3

[1] = tested on: CD4+ T-cells stimulated by CD2, CD3 and CD28 antibodies; assay: Cellular activity IL-4: reduction of IL-4 levels in activated CD4+ T-cells; assay type: cell-based, human
Method: • 1. CD4^+ T-cells are isolated from cryopreserved human peripheral blood mononuclear cells (PBMCs) using EasySep™ Kit (Cat. No. 17952, Stemcell Technologies). • 2. CD2, CD3 and CD28 antibodies coated beads from T cell Activation/Expansion Kit (Cat. No. 130-091-441, Miltenyi Biotec) are added to the CD4^+ T-cells at a bead-to-cell ratio of 1:2. • 3. CD4^+ T-cells along with the beads are seeded at 2×10^5 cells/well in a round bottom 96-well plate and treated with different compounds and controls in a total volume of 200 μl. • 4. The cells are cultured for 48 hrs at 37° C., 5% CO2. • 5. Supernatant is collected and IL-4 is analysed by ELISA.

human liver hepatocytes = assay: Intrinsic clearance in human liver hepatocytes; assay type: in vitro ADME; settings: human cryopreserved hepatocytes, 0.5 μM test compound
Method: Vials of human cryopreserved hepatocytes, supplied by Life Technologies, were thawed according to manufacturer's instructions and cells re-suspended in Williams Medium E (WME) containing cell maintenance supplement pack (CM4000, Life Technologies). Hepatocytes were incubated in suspension (0.5 million cells/mL) in 48 well non-collagen coated cell culture plates for 10 min at 37° C., 5% CO2. Upon addition of an equal volume of supplemented WME containing 1 μM test compound, an aliquot of incubation solution was removed to acetonitrile containing internal standard (final concentration 0.5 μM test compound and a cell density of 0.25 million cells/mL). Similarly, aliquots were removed at 3, 6, 9, 15, 30, 45, 60, 90 and 120 min. 100 μL of 80:20 water:acetonitrile was added to all samples and the analysis plate was centrifuged for 10 min at RT prior to injection and analysis of samples by UPLC-MS/MS. The response (area ratio of test compound to internal standard) was plotted against time using an exponential decay model from which rate of disappearance was calculated.

[2] = Homo sapiens, T-cell, 48 hrs, ELISA, read-out: EC50 reduction of IL-4 levels
[3] = Homo sapiens, T-cell, read-out: cellular EC50 values, reduction of IL-4 levels

Compound | Kd (BRD4 BD1) [µM] | Kd (BRD4 BD2) [µM] | EC50 [1, 2] [µM] | Intrinsic clearance, % Liver Blood Flow (human liver hepatocytes) [% Liver Blood Flow] | EC50 [1, 3] [µM] | EC50 ([1]; 48 hrs, ELISA, read-out: EC50 reduction of IL-4 levels) [µM]
Cc1cc(F)cc(C)c1Oc1c(-c2cn(C)c(=O)c3[nH]c(C(=O)NC4(C)CC4(F)F)cc23)ccn(C)c1=O (stereo not drawn) [Example 44, N-(2,2-difluoro-1-methylcyclopropyl)-4-(3-(4-fluoro-2,6-dimethylphenoxy)-1-methyl-2-oxo-1,2-dihydropyridin-4-yl)-6-methyl-7-oxo-6,7-dihydro-1H-pyrrolo[2,3-c]pyridine-2-carboxamide] | > 1 | 0.01 to 0.1 | 0.1 to 1 | 34 |  | 
CCCOc1ncsc1-c1cn(C)c(=O)c2[nH]ccc12 [Example 46, 6-methyl-4-(4-propoxythiazol-5-yl)-1,6-dihydro-7H-pyrrolo[2,3-c]pyridin-7-one] | 0.1 to 1 | 0.01 to 0.1 | 0.01 to 0.1 | 89 | < 0.1 | 
Cn1cc(Oc2cccc(O)c2)c(-c2cn(C)c(=O)c3[nH]ccc23)cc1=O [Example 24, 4-(5-(3-hydroxyphenoxy)-1-methyl-2-oxo-1,2-dihydropyridin-4-yl)-6-methyl-1,6-dihydro-7H-pyrrolo[2,3-c]pyridin-7-one] | 0.01 to 0.1 |  | 0.1 to 1 | 45 |  | 
Cn1cc(-c2scnc2OC2CCC2)c2cc[nH]c2c1=O [Example 45, 4-(4-cyclobutoxythiazol-5-yl)-6-methyl-1,6-dihydro-7H-pyrrolo[2,3-c]pyridin-7-one] | 0.1 to 1 | 0.01 to 0.1 |  | 86 |  | 
Cn1cc(-c2scnc2Oc2ccccc2)c2cc[nH]c2c1=O [Example 4, 6-methyl-4-(4-phenoxythiazol-5-yl)-1,6-dihydro-7H-pyrrolo[2,3-c]pyridin-7-one] | 0.01 to 0.1 | ≤ 0.01 | 0.01 to 0.1 | 80 | < 0.1 | 
Cn1cc(-c2scnc2Oc2ccc(O)cc2)c2cc[nH]c2c1=O [Example 20, 4-(4-(4-hydroxyphenoxy)thiazol-5-yl)-6-methyl-1,6-dihydro-7H-pyrrolo[2,3-c]pyridin-7-one] | 0.01 to 0.1 |  | 0.01 to 0.1 |  | < 0.1 | 
Cc1cc(F)cc(C)c1Oc1c(-c2cn(C)c(=O)c3[nH]ccc23)ccn(C)c1=O [Example 40, 4-(3-(4-fluoro-2,6-dimethylphenoxy)-1-methyl-2-oxo-1,2-dihydropyridin-4-yl)-6-methyl-1,6-dihydro-7H-pyrrolo[2,3-c]pyridin-7-one] | 0.1 to 1 | 0.01 to 0.1 | 0.1 to 1 | <34 |  | 
Cn1cc(-c2cc(O)ccc2OC2CCC2)c2cc[nH]c2c1=O [Example 10, 4-(2-cyclobutoxy-5-hydroxyphenyl)-6-methyl-1,6-dihydro-7H-pyrrolo[2,3-c]pyridin-7-one] | ≤ 0.01 |  | 0.01 to 0.1 | 93 | < 0.1 | 
Cc1cc(F)cc(C)c1Oc1c(-c2ccc(=O)n(C)c2)ccn(C)c1=O [Example 39, 3′-(4-fluoro-2,6-dimethylphenoxy)-1,1′-dimethyl-[3,4′-bipyridine]-2′,6(1H,1′H)-dione] | > 1 | 0.1 to 1 | > 1 |  |  | 
Cn1cc(-c2cc(O)ccc2Oc2ccccc2)ccc1=O [Example 8, 5-(5-hydroxy-2-phenoxyphenyl)-1-methyl pyridin-2(1H)-one] | 0.01 to 0.1 |  | 0.1 to 1 | 95 |  | 
Cc1cc(F)cc(C)c1Oc1c(-c2cn(C)c(=O)c3[nH]c(C(=O)NC(C)(C)C(F)(F)F)cc23)ccn(C)c1=O [Example 43] | > 1 | 0.01 to 0.1 | 0.1 to 1 | 38 |  | 
Cc1cc(F)cc(C)c1Oc1c(-c2cn(C)c(=O)c3[nH]ccc23)ccn(C)c1=O [Example 47, 4-(3-(4-fluoro-2,6-dimethylphenoxy)-1-methyl-2-oxo-1,2-dihydropyridin-4-yl)-6-methyl-1,6-dihydro-7H-pyrrolo[2,3-c]pyridin-7-one] |  | ≤ 0.01 |  |  |  | 0.1 to 1
Cn1cc(Oc2ccccc2)c(-c2cn(C)c(=O)c3[nH]ccc23)cc1=O [Example 7, 6-methyl-4-(1-methyl-2-oxo-5-phenoxy-1,2-dihydropyridin-4-yl)-1,6-dihydro-7H-pyrrolo[2,3-c]pyridin-7-one] | 0.01 to 0.1 | ≤ 0.01 | 0.01 to 0.1 | <34 | < 0.1 | 
Cn1ccc(-c2cn(C)c(=O)c3[nH]ccc23)c(Oc2ccccc2)c1=O [Example 5, 6-methyl-4-(1-methyl-2-oxo-3-phenoxy-1,2-dihydropyridin-4-yl)-1,6-dihydro-7H-pyrrolo[2,3-c]pyridin-7-one] | 0.01 to 0.1 | ≤ 0.01 | ≤ 0.01 | <34 | < 0.1 | 
Cc1cc(F)cc(C)c1Oc1c(-c2cn(C)c(=O)c3[nH]c(C(=O)NC(C)(C)C)cc23)ccn(C)c1=O [Example 42, N-(tert-butyl)-4-(3-(4-fluoro-2,6-dimethylphenoxy)-1-methyl-2-oxo-1,2-dihydropyridin-4-yl)-6-methyl-7-oxo-6,7-dihydro-1H-pyrrolo[2,3-c]pyridine-2-carboxamide] | > 1 | ≤ 0.01 | 0.1 to 1 | <34 |  | 
Cn1cc(-c2scnc2Oc2ccccc2)ccc1=O [Example 18, 1-methyl-5-(4-phenoxythiazol-5-yl)pyridin-2(1H)-one] | 0.1 to 1 |  | > 1 | 69 |  | 
